Laboratory results from patent US10111846B2, “S isomers of alpha-methyl-hydrocinnamic acid for the treatment of blood disorders” (priority 2009, dated 2018).
Several values for one entry are separate records, joined by “and”; a condition that tells them apart may be missing. Identical values can stand only once.

Tests used:
[1] = system: sub-lethally irradiated mouse model; experiment: Sub-lethally irradiated (6 Gy) mouse model, ANC; assay type: in vivo, mice; conditions: 500 mg/kg IP and 300 mg/kg IP after 6 Gy irradiation on day 0
Method: FIG. 9 is a graph of absolute neutrophil count (ANC) response to NaST7 (500 mg/kg IP and 300 mg/kg IP) after sub-lethal does of irradiation where mice were exposed to 6 Gy irradiation on day 0 and daily ST7 (enantiomer) was administered at two doses, beginning day 1.
In particular, absolute neutrophil count (ANC) increased after administration of NaST7 (500 mg/kg IP and 300 mg/kg IP) after sub-lethal does of irradiation (e.g., exposure to 6 Gy irradiation on day 0).

pH solubility profile [2] = assay type: physicochemical
Method: Sodium a-methyl hydrocinnamate was added to DI water in excess to determine the saturation solubility in water. The samples (n=3) were shaken and vortexed for about two hours to dissolve sodium a-methyl hydrocinnamate. […] The pH of the saturated solution was determined to be about 10.4.
The pH of the saturated aqueous solution was successively adjusted to pH values of 8, 7, 6, and 5 using 50% v/v phosphoric acid to determine the saturation solubility of each pH. To determine the saturation solubility at each pH, the aqueous layer obtained at each pH was diluted further in water and analyzed by UV. The pH solubility data and plot are presented in Table 1 and FIG. 13A, respectively.

pH solubility profile [3] = assay type: physicochemical; conditions: 200 mg/mL
[4] = Solubility in phosphate buffer containing 20% cyclodextrin; assay type: physicochemical; conditions: for Final pH (upon addition of drug): 250 mg/mL
Method: Phosphate buffer solutions at a target pH of 7 were prepared at buffer concentrations of 0.5M, 0.25M, and ˜0.1M, respectively. The buffer solutions contained 20% cyclodextrin.

[5] = Solubility in citrate buffer containing 30% cyclodextrin; assay type: physicochemical
Method: Solubility of sodium a-methyl hydrocinnamate and buffer capacity of pH 5 citrate buffers prepared at four different buffer concentrations were evaluated as presented in Table 3.

[6] = Solubility in pH 4.7 acetate buffer; assay type: physicochemical; conditions: pH 4.7 acetate buffer (per USP), about 100 mg/mL
Method: The sodium α-methyl hydrocinnamate was added to pH 4.7 acetate buffer (per USP) at a concentration of about 100 mg/mL.

pH stability profile = assay type: physicochemical; conditions: for Assay, initial: unit assumed; for Assay, 1 Week 60° C. / Assay, 1 Week RT: in % (unit assumed)
Method: The pH stability profile was determined at pH values of 2, 5, 6, 7, 8, 9, and 13 respectively. A pH 7 phosphate buffer at a buffer concentration of 100 mM was initially prepared. Six different aliquots of this buffer were successively adjusted to pH values of 2, […], 6, 8, 9, and 13 using either 50% v/v phosphoric acid or 1N sodium hydroxide solution. Transferred 0.2 mL of sodium α-methyl hydrocinnamate stock solution and 1 mL of alcohol into a 10.0 mL volumetric flask was made up the volume with each of the seven buffer solutions to yield a final concentration of ˜4 mg/ml of sodium α-methyl hydrocinnamate.
Diluted 0.5 ml of each solution to 5 mL with diluent and analysed by HLPC per AM-013-RO to determine the initial concentration of sodium α-methyl hydrocinnamate. The solution was divided into two parts, one part was kept at room temperature (RT) and the other part was kept at 60° C. to evaluate the stability of sodium α-methyl hydrocinnamate.

[7] = buffer pH 4*, pH 5* on addition of drug

## CC(Cc1ccccc1)C(=O)[O-].[Na+] (stereo not drawn) [sodium α-methyl hydrocinnamate]
[1]
  absolute neutrophil count (ANC): increased
pH solubility profile [2]; DI water, n=3
  saturation solubility in water: 655 mg/mL
pH solubility profile [2]; pH (average) 5
  Solubility, mg/mL, Average: 2.2 mg/mL
pH solubility profile [2]; pH (average) 6
  Solubility, mg/mL, Average: 2.8 mg/mL
  Solubility, mg/mL, samples 1, 2, 3: 2.7 mg/mL and 3.6 mg/mL and 2.2 mg/mL
pH solubility profile [2]; pH (average) 7
  Appearance: Turbid solution
  Solubility, mg/mL, Average: 559.0 mg/mL
  Solubility, mg/mL, samples 1, 2, 3: 653.5 mg/mL and 579.7 mg/mL and 443.8 mg/mL
pH solubility profile [2]; pH (average) 8
  Appearance: Clear solution
  Solubility, mg/mL, Average: 653.3 mg/mL
  Solubility, mg/mL, samples 1, 2, 3: 660.8 mg/mL and 663.6 mg/mL and 635.7 mg/mL
pH solubility profile [2]; pH (average) 10
  Appearance: Clear solution
  Solubility, mg/mL, Average: 655.1 mg/mL
  Solubility, mg/mL, samples 1, 2, 3: 631.7 mg/mL and 700.4 mg/mL and 633.3 mg/mL
pH solubility profile [2]; pH values of 7 and below
  solubility in aqueous solution: almost insoluble
pH solubility profile [2]; water
  pH of the saturated solution: about 10.4
pH solubility profile [3]
  pH of aqueous solution: about 10
[4]; 0.5M, 0.25M, ~0.1M, 20% cyclodextrin, target formulation concentration
  solubility in phosphate buffer solutions: observed to dissolve at the target formulation concentration
[4]; phosphate buffer 0.25 M, 20% Captisol, initial pH 6.3
  Final pH (upon addition of drug): 7.0
[4]; phosphate buffer 0.25 M, 20% Trappsol, initial pH 6.3
  Final pH (upon addition of drug): 6.8
[4]; phosphate buffer 0.5 M, 20% Captisol, initial pH 6.2
  Final pH (upon addition of drug): 6.8
[4]; phosphate buffer 0.5 M, 20% Trappsol, initial pH 6.3
  Final pH (upon addition of drug): 6.7
[4]; phosphate buffer ~0.1 M, 20% Captisol, initial pH 6.8
  Final pH (upon addition of drug): 7.9
[4]; phosphate buffer ~0.1 M, 20% Trappsol, initial pH 6.8
  Final pH (upon addition of drug): 7.6
[5]; 0.25M and 0.1M citrate buffer, 30% Trappsol
  change of pH of buffer solution upon addition of target concentration: 1.5-2 units
[5]; 0.5M and 1 M
  solubility in citrate buffers of high concentrations: not soluble
[5]; citrate buffer 0.1 M, 30% Captisol, initial pH 4.9, 100 mg/ml
  Solubility (appearance): Clear
[5]; citrate buffer 0.1 M, 30% Captisol, initial pH 4.9, 250 mg/ml
  Solubility (appearance): Clear
[5]; citrate buffer 0.1 M, 30% Captisol, initial pH 4.9, after addition of drug
  pH: 7.3
[5]; citrate buffer 0.1 M, 30% Trappsol, initial pH 5.1, 100 mg/ml
  Solubility (appearance): Clear
[5]; citrate buffer 0.1 M, 30% Trappsol, initial pH 5.1, 250 mg/ml
  Solubility (appearance): Clear
[5]; citrate buffer 0.1 M, 30% Trappsol, initial pH 5.1, after addition of drug
  pH: 7.0
[5]; citrate buffer 0.25 M, 30% Trappsol, initial pH 5.1, 100 mg/ml
  Solubility (appearance): Clear
[5]; citrate buffer 0.25 M, 30% Trappsol, initial pH 5.1, 250 mg/ml
  Solubility (appearance): Clear
[5]; citrate buffer 0.25 M, 30% Trappsol, initial pH 5.1, after addition of drug
  pH: 6.5
[5]; citrate buffer 1.0, 0.5, 0.25 M, 30% Captisol, initial pH 4.9, 100 mg/ml
  Solubility (appearance): Insoluble
[5]; citrate buffer 1.0, 0.5 M, 30% Trappsol, initial pH 5.1, 100 mg/ml
  Solubility (appearance): Insoluble
[6]
  behaviour in acetate buffer: observed to separate from the aqueous layer
pH stability profile; buffer pH 2
  pH, 1 Week 60° C.: 1.9
  pH, 1 Week RT: 2.2
  Assay, 1 Week 60° C.: 81.2
  Assay, 1 Week RT: 99.8
pH stability profile; buffer pH 2, ~4 mg/ml
  Assay, initial: 95.8%
pH stability profile; [7]
  pH, 1 Week 60° C.: 5.1
  pH, 1 Week RT: 5.3
  Assay, 1 Week 60° C.: 102.3
  Assay, 1 Week RT: 102.9
  Assay, initial: 98.8%
pH stability profile; buffer pH 6
  pH, 1 Week 60° C.: 6.0
  pH, 1 Week RT: 6.3
  Assay, 1 Week 60° C.: 102.9
  Assay, 1 Week RT: 102.9
  Assay, initial: 97.2%
pH stability profile; buffer pH 7
  pH, 1 Week 60° C.: 6.9
  pH, 1 Week RT: 7.2
  Assay, 1 Week 60° C.: 99.6
  Assay, 1 Week RT: 100.7
  Assay, initial: 94%
pH stability profile; buffer pH 8
  pH, 1 Week 60° C.: 8.1
  pH, 1 Week RT: 8.3
  Assay, 1 Week 60° C.: 100.8
  Assay, 1 Week RT: 100.4
  Assay, initial: 97.9%
pH stability profile; buffer pH 9
  pH, 1 Week 60° C.: 9.0
  pH, 1 Week RT: 9.2
  Assay, 1 Week 60° C.: 101.6
  Assay, 1 Week RT: 102.2
  Assay, initial: 98.8%
pH stability profile; buffer pH 13
  pH, 1 Week 60° C.: 12.7
  pH, 1 Week RT: 12.8
  Assay, 1 Week 60° C.: 12.9
  Assay, 1 Week RT: 11.2
  Assay, initial: 23.2%
pH stability profile; pH 2 solution stored for 1 week at 60° C.
  degradation: About 20%
pH stability profile; pH 13, initially
  degradation: About 80%
pH stability profile; pH 13, storage for 1 week at both room temperature and 60° C.
  degradation: 90%
pH stability profile; pH range of 2-9 at room temperature
  time stable: at least 1 week
pH stability profile; pH range of 5 to 9 when stored at 60° C.
  stability: stable for at least one week
